According to patent US20240115496A1, “A COMPOUND DRY POWDER INHALANT AND USE THEREOF” (TIANJIN UNIVERSITY OF TRADITIONAL CHINESE MEDICINE, priority 2021, published 2024):

Key:
[1] = Particle size distribution test, laser particle size analyzer, dry dispersion; type: physicochemical
Experimental: The particle size distribution of DPI dry powder was measured by dry dispersion method using laser particle size analyzer, and Dv10, Dv50, Dv90, VMD (Volume median diameter) and SMD (Sauter mean diameter) were determined, respectively.

[2] = In vivo pharmacokinetics, plasma (UPLC-MS/MS); design: species or system rat; settings: for half-life: read-out: HLz (biological half-life) (converted); for MRT last: read-out: MRTlast (mean retention time); for concentration at 2 min / concentration at 10 min / concentration at 15 min / concentration at 30 min / concentration at 60 min / concentration at 120 min / concentration at 240 min / concentration at 360 min / concentration at 4 min: read-out: Blood concentration of BA; for concentration at 4 min: Sprague-Dawley (SD)
Experimental: (§1) SPF-grade healthy SD male rats, body weight 180-220 g, purchased from SPF (Beijing) Biotechnology Co., Ltd (Certificate No. SCXK (Beijing) 2019-0010), were conventionally reared under (23±2)° C., humidity: (50±10)%. This study was conducted with the approval of the Animal Experiment Center of Tianjin University of Traditional Chinese Medicine.
(§2) 108 SPF-grade SD male rats were randomly divided into tail intravenous injection group and pulmonary administration group, with 9 time points of 2 min, 4 min, 10 min, 15 min, 30 min, 1 h, 2 h, 4 h and 6 h per group, 6 rats per time point per group. The rats were fasted for 12 h before the experiment, with water provided. The rats were weighed (to calculate the dose) and numbered, and both groups were intraperitoneally injected with 10% chloral hydrate at a dose of 2 mL/kg. Group 1 was administered BA/AH-DPI saline solution by tail intravenous injection at a dose of 9 mg/kg. Group 2 was administered 3 mg of BA/AH-DPI fine powder at the same dose by spray administration with a DP-4 tracheal insufflator (1.5 mL of air was pushed each time, 3-4 times consecutively). Blood was sampled from the abdominal aorta of the rats in both groups at the above time points after drug administration, and the rats were executed. The obtained whole blood was placed in a centrifuge tube with sodium heparin, centrifuged at 4000 r/min for 10 min, and the upper layer of plasma was separated and stored a refrigerator at −80° C. After blood collection, the thoracic cavity was quickly opened and the lungs of the rats were isolated. The small amount of floating blood on the surface of the lung tissue was washed with saline in an ice bath. The surface of the lung tissue was blotted with filter paper. The trachea was cut off, wrapped in tin foil and placed in a 10 mL centrifuge tube. The lung was weighed precisely, and stored in a refrigerator at −80° C.
(§3) 100 μL of the plasma sample or lung tissue supernatant was precisely absorbed, and 200 μL (100 ng/mL) of methanol solution containing the internal standard was added. The mixture was vortexed and mixed for 3 min, and centrifuged at 12000 r/min for 10 min to obtain the supernatant as the finished sample. The contents of BA and AH were determined by UPLC-MS/MS method.
(§4) Electrospray ion source (ESI source); scan mode: positive (ESI+) detection; detection mode: multi-reactive ion monitoring (MRM). Electrospray voltage: 4 kV; atomization gas: N2; spray gas flow rate (Gas1): 15 psi; ion source temperature: 300° C.
(§5) Meaning of pharmacokinetic parameters: HLz was the biological half-life, i.e., the time required for the amount or blood concentration of the drug in the body to decrease by half; Tmax was the time to peak, i.e., the time required to reach the peak concentration of the drug after administration. Cmax was the peak drug concentration, i.e., the highest blood concentration that occurred after administration of the drug. AUC was the area enclosed by the blood drug concentration curve against the time axis. Vz/F was the apparent volume of distribution, the ratio constant of the amount of drug in the body to the blood concentration when the drug reached dynamic equilibrium in the body. CL/F was the clearance, i.e., the number of apparent volume of distribution of the drug removed from the body per unit time. AUMC was the first order moment of the drug-time curve, i.e. the area under the curse of the product of time and blood concentration versus time. MRTlast was the mean retention time, i.e., the average of the residence time of drug molecules in the body.

[3] = In vivo pharmacokinetics, lung tissue homogenate (UPLC-MS/MS); design: species or system rat; settings: for CL/F (clearance) / Cmax / Tmax / half-life / MRT last: BA in rat lung tissue; for concentration at 2 min / concentration at 4 min / concentration at 10 min / concentration at 15 min / concentration at 30 min / concentration at 60 min / concentration at 120 min / concentration at 240 min / concentration at 360 min / Cmax / Tmax / half-life / MRT last: male, Sprague-Dawley (SD); for concentration at 2 min / concentration at 4 min / concentration at 10 min / concentration at 15 min / concentration at 30 min / concentration at 60 min / concentration at 120 min / concentration at 240 min / concentration at 360 min: rat lung tissue homogenate, read-out: Drug concentration of BA in lung tissue; for Cmax / Tmax / half-life / MRT last: lung tissue (homogenate supernatant); for half-life: read-out: HLz (biological half-life) (converted); for MRT last: read-out: MRTlast (mean retention time)
Experimental: as §1, §2
The lung tissues were added to saline in a weight to volume ratio of 1:4 (g:mL). A homogenate was obtained by beating, dispersing and evenly grinding with a homogenizer under an ice water bath, and centrifuged at 6500 r/min for 20 min to obtain the supernatant of the lung tissue homogenate.
as §3, §4, §5

[4] = male, SD, inhaled or intranasal, BA in rat plasma, pulmonary administration group, BA/AH-DPI 9 mg/kg
[5] = male, SD, inhaled, rat plasma, pulmonary administration BA/AH-DPI 9 mg/kg
[6] = male, SD, BA in rat plasma, tail intravenous injection group, 9 mg/kg
[7] = male, SD, rat plasma, tail intravenous injection BA/AH-DPI saline solution 9 mg/kg
[8] = tail intravenous injection group, 9 mg/kg
[9] = inhaled, pulmonary administration BA/AH-DPI 9 mg/kg
[10] = inhaled or intranasal, pulmonary administration group, BA/AH-DPI 9 mg/kg
[11] = tail intravenous injection BA/AH-DPI saline solution 9 mg/kg

O=C(O)[C@H]1O[C@@H](Oc2cc3oc(-c4ccccc4)cc(=O)c3c(O)c2O)[C@H](O)[C@@H](O)[C@@H]1O [BA, baicalin] gave a D10 [1] of 0.88 μm, a D50 [1] of 5.18 μm and a D90 [1] of 12.61 μm. For the same molecule, the “SMD (Sauter mean diameter)” value [1] was 2.23 μm, the “VMD (Volume median diameter)” value [1] was 6.05 μm and the “<3 μm” value ([1]; fraction of particles) was 31.81%. The “<5 μm” value ([1]; fraction of particles) was 48.66%, the “CL/F (clearance)” value ([2]; BA in rat plasma, tail intravenous injection group, 9 mg/kg) was 98.4805 ± 62.0535 mL/min/kg and the Cmax [2, 4] was 2560 ± 351 ng/mL. For the same molecule, the Tmax [2, 4] was 9 ± 4.2 min, the CL/F ([2]; male, SD, inhaled or intranasal, BA in rat plasma, pulmonary administration group, BA/AH-DPI 9 mg/kg, read-out: CL/F (clearance) (converted)) was 121 mL/min/kg and the half-life [2, 4] was 121 ± 38.4 min. The MRT last [2, 4] was 45 ± 5.52 min, the Vd/F ([2]; male, SD, inhaled or intranasal, BA in rat plasma, pulmonary administration group, BA/AH-DPI 9 mg/kg, read-out: Vz/F (apparent volume of distribution)) was 20.9 ± 6.57 L/kg and the bioavailability ([2]; male, SD, inhaled, rat plasma, pulmonary administration of BA/AH-DPI vs tail intravenous injection, 9 mg/kg, read-out: Absolute bioavailability) was 60.7%. It also gave a concentration at 2 min [2, 5] of 690 ± 438 ng/mL, a concentration at 10 min [2, 5] of 2320 ± 421 ng/mL and a concentration at 15 min [2, 5] of 1470 ± 588 ng/mL. The concentration at 30 min [2, 5] was 628 ± 95.9 ng/mL, the concentration at 60 min [2, 5] was 289 ± 110 ng/mL and the concentration at 120 min [2, 5] was 57.2 ± 14.2 ng/mL. The concentration at 240 min [2, 5] was 27.4 ± 10.9 ng/mL, the concentration at 360 min [2, 5] was 13.4 ± 3.68 ng/mL and the Cmax [2, 6] was 11800 ± 6050 ng/mL. The Tmax [2, 6] was 2.28 ± 0.6 min, the half-life [2, 6] was 48.6 ± 36 min and the MRT last [2, 6] was 14.4 ± 9.6 min. The concentration at 2 min [2, 7] was 11700 ± 6170 ng/mL, the concentration at 10 min [2, 7] was 933 ± 401 ng/mL and the concentration at 15 min [2, 7] was 693 ± 284 ng/mL. For the same molecule, the concentration at 30 min [2, 7] was 338 ± 70.3 ng/mL, the concentration at 60 min [2, 7] was 77 ± 46.1 ng/mL and the concentration at 120 min [2, 7] was 53.7 ± 54.2 ng/mL. It also gave a concentration at 240 min [2, 7] of 8.68 ± 8.46 ng/mL, a concentration at 360 min [2, 7] of 2.64 ± 5.27 ng/mL and a concentration at 4 min ([2]; male, inhaled, rat plasma, pulmonary administration BA/AH-DPI 9 mg/kg) of 1740 ± 962 ng/mL. The concentration at 4 min ([2]; male, rat plasma, tail intravenous injection BA/AH-DPI saline solution 9 mg/kg) was 3060 ± 861 ng/mL, the “Time of maximum blood concentration in plasma” value ([2]; rat, pulmonary administration of BA/AH-DPI 9 mg/kg) was “around 9 min” and the “CL/F (clearance)” value ([3]; pulmonary administration group, BA/AH-DPI 9 mg/kg) was 800.14 ± 131.95 g/h/kg. For the same molecule, the “CL/F (clearance)” value [3, 8] was 29086.90 ± 13876.33 g/h/kg, the concentration at 2 min [3, 9] was 6440 ± 1200 ng/mL and the concentration at 4 min [3, 9] was 4960 ± 1130 ng/mL. The concentration at 10 min [3, 9] was 3190 ± 524 ng/mL, the concentration at 15 min [3, 9] was 1820 ± 346 ng/mL and the concentration at 30 min [3, 9] was 1420 ± 469 ng/mL. For the same molecule, the concentration at 60 min [3, 9] was 705 ± 160 ng/mL, the concentration at 120 min [3, 9] was 235 ± 76.2 ng/mL and the concentration at 240 min [3, 9] was 92.2 ± 25.4 ng/mL. It also gave a concentration at 360 min [3, 9] of 43.1 ± 16.9 ng/mL, a Cmax [3, 10] of 26000 ± 4490 ng/g and a Tmax [3, 10] of 2.64 ± 1.08 min. It also gave a half-life [3, 10] of 84 ± 24 min, an MRT last [3, 10] of 57 ± 5.22 min and a Cmax [3, 8] of 341 ± 112 ng/g. For the same molecule, the Tmax [3, 8] was 1.98 min, the half-life [3, 8] was 101 ± 44.4 min and the MRT last [3, 8] was 91.2 ± 36 min. The concentration at 2 min [3, 11] was 85.3 ± 27.9 ng/mL, the concentration at 4 min [3, 11] was 42 ± 7.67 ng/mL and the concentration at 10 min [3, 11] was 45.1 ± 13.6 ng/mL. The concentration at 15 min [3, 11] was 45.8 ± 18.7 ng/mL, the concentration at 30 min [3, 11] was 39.2 ± 22 ng/mL and the concentration at 60 min [3, 11] was 16.3 ± 19.5 ng/mL. The concentration at 120 min [3, 11] was 12.9 ± 10.5 ng/mL, the concentration at 240 min [3, 11] was 8.37 ± 6.37 ng/mL and the concentration at 360 min [3, 11] was 2.71 ± 3.37 ng/mL.
